The format of data set [1] is physicochemical. The note with it: for H2S release under weak acidic pH: pH 5 and 6, PBS buffer; for H2S release under neutral and weak basic pH: pH 7.4 and 8, PBS buffer.
For data set [2], the system named is myocardial ischemia/reperfusion (MI/R) injury. In words: Circulating cardiac troponin I in MI/R murine model. The following applies: 50 μg/kg (p<0.05) or 100 μg/kg (p<0.01), blood at 4 h of reperfusion.
Experimental: Blood was collected at 4 hours of reperfusion, and circulating cardiac troponin I levels were measured.
Surgical occlusion of the left coronary artery (LCA), infarct size determination, and troponin I (TnI) measurements were performed as previously described. ^1C57BL6/J male mice (10-12 weeks of age) were anesthetized using pentobarbital (50 mg/kg) and ketamine (60 mg/kg) and maintained under anesthesia throughout the procedure with additional administration of pentobarbital (50 mg/kg). […] A hair removal compound was used to remove the hair on the chest of mice. The area was then cleaned using betadine and alcohol wipes alternating 3 times. The chest was opened with via a median sternotomy and the exposed ribs, muscle, and tissues were cauterized to prevent bleeding. The LCA was visualized using a dissection microscope with a fiber optic light ring, and using a 7-0 silk suture, a 3-5 mm piece of PE-10 tubing was secured over the LCA, occluding the artery. Mice were subjected to 45 min of myocardial ischemia followed by reperfusion. At the time of reperfusion, an injection of vehicle (saline), JK-1 (50 μg/kg and 100 μg/kg), or JK-2 (50 μg/kg and 100 μg/kg) was given i.c. The chest was closed in layers, closing the muscle layer first, then the skin. Mice were removed from ventilation once pedal reflex returned and it was determined that respiration was spontaneous. Mice were placed in a recovery cage and supplied with 100% O2 via a nose cone. Reperfusion was allowed for 24 h, and blood samples for TnI measurements were taken at 4 h after time of reperfusion.
Blood samples were collected via a tail vein at 4 h of reperfusion. Cardiac troponin I level was measured in serum using the Life Diagnostic high sensitivity mouse cardiac troponin I ELISA kit following the manufacturer's instructions.
A further data set relates to HeLa cells. In words: H2S production in cells, WSP-5 fluorescent probe imaging. In kind it is cell-based. The following applies: 200 μM donor, 1 h.
In the next data set the test system is H9c2 cardiomyoblasts. The data set can be described thus: Anoxia/reoxygenation (A/R)-induced cellular injury, CCK-8 cell viability. In kind it is cell-based. The note with it: for protection against A/R-induced cellular damage (cell viability): H9c2, 12, 25 and 50 μM for 1 h during anoxia, then reoxygenation. Here is the method:
FIG. 3B. […] During anoxia various concentrations of JK-1 and JK-2 were added into medium and incubated for 1 h, respectively. Then the cells underwent a reoxygenation process. After the treatments, the CCK-8 assay was performed to detect cell viability. Data was expressed as the mean±SEM. **P<0.01 vs the control group, #P<0.05, ##P<0.01 vs A/R alone group.
The cell counting kit (CCK)-8 was applied to measure the cell viability of HeLa cells cultured in 96-well plates. After the indicated cell treatment, 100 μL of CCK-8 solution at 1:10 dilution was added to each well and cells were incubated for a further 3 h at 37° C. Absorbance was measured at 450 nm with a microplate reader. The mean optical density (OD) of 4 wells in each group was used to calculate cell viability as follows: (experiments were performed in triplicate)
The effect of H2S as a cardioprotective agent against myocardial ischemia reperfusion (MI/R) injury is known in the art. The mechanisms include reducing oxidative stress, preserving mitochondrial function, decreasing myocardial inflammation, and improving angiogenesis. […] To establish the cellular model of MI/R injury, H9c2 cardiomyoblasts were exposed to anoxia/reoxygenation (A/R) treatment, together with increasing concentrations of H2O2 (100-400 μM). […] Since the median lethal concentration of H2O2 in H9c2 cells was approximately 400 μM, this concentration was used for our studies.
The protective effects of the disclosed compounds against A/R-induced cellular damage was examined. In these experiments, H9c2 cells were pretreated with JK-1 or JK-2 at various concentrations (12, 25 and 50 μM) for 1 h during anoxia. Cells then underwent a reoxygenation process, after which cell viability was analyzed.

The nature of data set [3]: Circulating free H2S level, gas chromatography and chemiluminescence. It is filed as in vivo, mice. The following applies: plasma, 15 minutes after administration, 50 μg/kg (p<0.05) or 100 μg/kg (p<0.001). As for the experimental part: FIG. 5. […] Blood was collected 15 minutes after the administration of JK-2. Circulating free H2S levels were measured from plasma samples using gas chromatography and chemiluminesence methods.

Data set [4] relates to myocardial ischemia/reperfusion (MI/R) injury. Further details: species or system mice. The note with it: mouse, in vivo.
The subject of data set [5] is TAC-induced heart failure. In words: Transverse aortic constriction (TAC) heart failure model, echocardiography. In kind it is in vivo, C57BL6/J mice. The following applies: 100 μg/kg once daily i.p. from 3 weeks post-TAC, 14 weeks. As for the experimental part: FIG. 7. Left ventricular dimensions at end-diastole (LVEDD) and at end-systole in millimeters (mm) at baseline and following heart failure in C57BL6/J mice. Mice were subjected to transverse aortic constriction (TAC) surgery to induce pressure overload hypertrophy and heart failure with reduced ejection fraction. LVEDD and LVESD were measured using high-resolution echocardiography at baseline and every 2 weeks thereafter for a period of 14 weeks. The H2S donor, (JK1) was administered starting at 3 weeks post-TAC at a dose of 100 μg/kg administered once daily via intraperitoneal injection. […] Following heart failure the heart dilates and this adverse remodeling response contributes to reduced cardiac function.
FIG. 8. Interventricular septum thickness measured at end-diastole (IVSd) and at end-systole (IVSs) in millimeters (mm) at baseline and following heart failure in C57BL6/J mice. Mice were subjected to transverse aortic constriction (TAC) surgery to induce pressure overload hypertrophy and heart failure with reduced ejection fraction. IVSd and IVSs were measured using high-resolution echocardiography at baseline and every 2 weeks thereafter for a period of 14 weeks. The H2S donor, (JK1) was administered starting at 3 weeks post-TAC at a dose of 100 μg/kg administered once daily via intraperitoneal injection. […] Myocardial wall thinning is a significant pathological component of heart failure.
(§1) FIG. 9. Left ventricular (LV) posterior wall thickness (PW) measured at end-diastole (d) and at end-systole (s) in millimeters (mm) at baseline and following heart failure in C57BL6/J mice. Mice were subjected to transverse aortic constriction (TAC) surgery to induce pressure overload hypertrophy and heart failure with reduced ejection fraction LVPWd and LVPWs were measured using high-resolution echocardiography at baseline and every 2 weeks thereafter for a period of 14 weeks. The H2S donor, (JK1) was administered starting at 3 weeks post-TAC at a dose of 100 μg/kg administered once daily via intraperitoneal injection.
as §1, with “10.” for “9.”, “ejection fraction (EF)” for “posterior wall thickness (PW) measured at end-diastole (d)”, “fractional shortening (FS)” for “at end-systole (s) in millimeters (mm)”, “fraction. LVEF (%)” for “fraction LVPWd”, “LVFS (%)” for “LVPWs”, “injection. LVEF and LVFS are clinically utilized measures of cardiac function.” for “injection.”

The mark [6] stands for this setting: 100 μM donor, PBS buffer pH 5.0, 6.0, 7.4, 8.0, time-dependent.

The text below walks through data of patent publication US10005801B2 (priority 2016, dated 2018).

“And” between values parts separate entries of the source, which are not always exact repeats. Equal values may be shown once. “Also recorded” adds a separate entry of the source. Read-outs that look alike come from different tables or passages of the source.

For `O=C([O-])C(Cc1ccccc1)NP([O-])(=S)c1ccccc1.[Li+].[Li+]` (centres unmarked) [JK-2], the H2S release result in data set [1] (setting [6]) is “much-enhanced H2S releasing ability”. Besides, in data set [1], the “H2S release under weak acidic pH” value was “much faster release”; the “H2S release under neutral and weak basic pH” value is “slow and sustained H2S release”. In addition, the “circulating cardiac troponin I level” value in data set [2] is “significantly lowered; also recorded: significantly reduced”. Also, the “H2S production in cells (WSP-5 fluorescence)” value in the data set with HeLa cells is “strong fluorescence”. Moreover, in the data set with H9c2 cardiomyoblasts, the “protection against A/R-induced cellular damage (cell viability)” value is listed as “significant attenuation of A/R induced damage”. For the same molecule, the “circulating free H2S level” value in data set [3] is reported as “significant increase; also recorded: significantly higher”. In addition, in data set [4], the myocardial infarct size entry is on record as “significantly reduced”; the “reduction of infarct size per area-at-risk (INF/AAR)” value is 55% and 56%.
For `O=C([O-])C1CCCN1P([O-])(=S)c1ccccc1.[Li+].[Li+]` (centres unmarked) [JK-5], the H2S release entry in data set [1] (pH 5) is reported as “not to release H2S at all”.
`OO` [H2O2, reference compound]: in the data set with H9c2 cardiomyoblasts (H9c2 cells, A/R treatment together with H2O2 (100-400 μM)), the “H2O2 median lethal concentration” value was “approximately 400 μM”.
With `O=C(O)CNP(O)(=S)c1ccccc1` (centres unmarked) [JK-1], the H2S release entry in data set [1] (setting [6]) is listed as “much-enhanced H2S releasing ability”. In data set [1], the “H2S release under weak acidic pH” value is on record as “only released H2S under weak acidic pH”; the “H2S release under neutral and weak basic pH” value is “barely detectable H2S”. The “circulating cardiac troponin I level” value in data set [2] is reported as “significantly lowered; also recorded: significantly reduced”. For the same molecule, in the data set on HeLa cells, the “H2S production in cells (WSP-5 fluorescence)” value is “much weaker fluorescence”. In data set [5], the “interventricular septum thickness (IVSd, IVSs)” value was “significantly preserved IVSd and IVSs”; the “left ventricular dilatation (LVEDD, LVESD)” value was “significantly reduced left ventricular dilatation”; the “left ventricular ejection fraction (LVEF) and fractional shortening (LVFS)” value was “significantly preserved both LVEF and LVFS”; the “left ventricular posterior wall thickness (LVPWd, LVPWs)” value is given as “significantly preserved left ventricular wall thickness”. Also, the “protection against A/R-induced cellular damage (cell viability)” value with H9c2 cardiomyoblasts is listed as “significant attenuation of A/R induced damage”. For the same molecule, in data set [4], the myocardial infarct size entry was “significantly reduced”; the “reduction of infarct size per area-at-risk (INF/AAR)” value was 43% and 64%.
